Experimental data as given in patent US5688913A, “CS-1 peptidomimetics, compositions and methods of using the same” (Cytel Corporation, priority 1995, dated 1997).
Where two headings read alike, the source gives them in different places. Square brackets hold non-standard residues; d marks the D form. Peptide text beside a SMILES is read from it. * marks the point of attachment. Quinoline3carbonyl = O=C(c1cnc2ccccc2c1)*; Benzenesulfonyl = O=S(=O)(c1ccccc1)*; Pyrazinecarbonyl = O=C(c1cnccn1)*; Cha = N[C@@H](CC1CCCCC1)C(=O)O; X19 = O=C(Cc1ccc(Br)cc1)*; Cbz = O=C(OCc1ccccc1)*; PhAc = O=C(Cc1ccccc1)*; X14 = O=C(c1cc[nH]n1)*; Bz = O=C(c1ccccc1)*

Molecular target: VLA-4 (Homo sapiens, UniProt P05556+P13612)
Sequence (P13612 34-1032): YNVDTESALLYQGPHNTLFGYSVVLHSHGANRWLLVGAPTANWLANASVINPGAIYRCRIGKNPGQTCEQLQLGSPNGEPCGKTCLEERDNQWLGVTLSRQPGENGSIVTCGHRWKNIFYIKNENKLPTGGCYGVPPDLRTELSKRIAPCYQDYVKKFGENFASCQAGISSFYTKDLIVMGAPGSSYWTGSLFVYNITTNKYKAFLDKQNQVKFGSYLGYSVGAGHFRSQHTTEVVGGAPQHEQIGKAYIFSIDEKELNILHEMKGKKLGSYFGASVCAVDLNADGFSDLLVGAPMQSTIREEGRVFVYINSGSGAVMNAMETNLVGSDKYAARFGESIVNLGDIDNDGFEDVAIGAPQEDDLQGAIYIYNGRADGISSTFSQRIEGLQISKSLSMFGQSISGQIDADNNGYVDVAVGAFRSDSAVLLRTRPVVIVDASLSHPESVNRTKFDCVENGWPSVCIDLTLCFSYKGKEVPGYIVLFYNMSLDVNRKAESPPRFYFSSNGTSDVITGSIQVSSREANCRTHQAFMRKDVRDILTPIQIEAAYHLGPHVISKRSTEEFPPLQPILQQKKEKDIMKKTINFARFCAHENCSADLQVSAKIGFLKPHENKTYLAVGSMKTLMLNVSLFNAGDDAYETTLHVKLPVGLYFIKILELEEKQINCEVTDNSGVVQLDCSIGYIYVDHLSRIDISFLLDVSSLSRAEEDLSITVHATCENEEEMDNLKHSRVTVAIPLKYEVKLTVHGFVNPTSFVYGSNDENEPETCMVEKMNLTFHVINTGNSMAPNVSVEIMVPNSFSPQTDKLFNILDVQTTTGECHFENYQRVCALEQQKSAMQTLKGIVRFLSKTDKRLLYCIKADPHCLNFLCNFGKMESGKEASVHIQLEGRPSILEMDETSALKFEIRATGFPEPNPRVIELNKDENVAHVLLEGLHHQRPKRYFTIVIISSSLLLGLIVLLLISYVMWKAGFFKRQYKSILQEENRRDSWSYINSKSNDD
Sequence (P05556 21-798): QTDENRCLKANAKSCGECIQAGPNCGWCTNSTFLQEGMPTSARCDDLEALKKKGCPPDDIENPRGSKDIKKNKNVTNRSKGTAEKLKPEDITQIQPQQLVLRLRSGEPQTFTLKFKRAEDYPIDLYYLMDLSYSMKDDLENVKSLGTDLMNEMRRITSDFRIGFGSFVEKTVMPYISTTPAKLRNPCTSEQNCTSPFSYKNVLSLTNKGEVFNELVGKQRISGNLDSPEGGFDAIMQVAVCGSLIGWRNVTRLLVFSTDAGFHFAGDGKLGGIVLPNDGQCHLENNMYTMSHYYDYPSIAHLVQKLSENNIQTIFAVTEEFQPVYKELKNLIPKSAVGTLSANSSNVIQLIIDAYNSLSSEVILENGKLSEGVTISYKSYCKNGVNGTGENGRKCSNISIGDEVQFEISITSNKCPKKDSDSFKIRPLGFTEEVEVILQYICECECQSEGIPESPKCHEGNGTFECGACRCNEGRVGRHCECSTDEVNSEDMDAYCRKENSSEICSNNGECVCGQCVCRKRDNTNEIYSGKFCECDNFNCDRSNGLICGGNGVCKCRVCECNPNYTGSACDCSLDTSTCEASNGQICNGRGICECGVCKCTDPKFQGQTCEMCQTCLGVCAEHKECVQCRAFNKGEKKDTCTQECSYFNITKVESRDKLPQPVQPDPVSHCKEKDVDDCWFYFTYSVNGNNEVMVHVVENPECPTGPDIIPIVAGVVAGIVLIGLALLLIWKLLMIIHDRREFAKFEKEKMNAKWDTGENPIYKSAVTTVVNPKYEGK
Assay: cell-based
Type: cell-based
Parameters: host or cells: Jurkat (human T lymphoblastic line)
Protocol: Binding inhibition is measured here as a concentration of peptide that inhibits one-half the binding between a standard number of Jurkat cells and a standard amount of CS-1 peptide bound to the surface of a microtiter plate well. Those concentrations are conveniently expressed as IC50 values, smaller numbers indicating a lower concentration required to inhibit 50 percent binding and therefore greater potency. Further specifics of this assay are provided hereinafter.
Jurkat cells (ATCC TIB 152), a human T lymphoblastic line, labeled with ^51 chromium were used to assay in vitro binding inhibition provided by various peptides discussed herein.
The plates were prepared as follows: The 25-mer CS-1 peptide (SEQ ID NO:1) dissolved at 0.5-1 μg/ml in a buffer of 0.1M NaHCO3 at pH 9.5 that also contained 10 μg/ml of bovine serum albumin (BSA) or a conjugate of the CS-1 peptide linked to ovalbumin (CS-1-OVA) dissolved at 1-2.5 μg/ml in the same buffer was used as the substrate. Each well of the microtiter plates was coated with 50 μl of substrate or buffer alone for controls. The wells were permitted to dry out completely and were then rinsed twice with PBS at pH 7.4. Non-specific binding sites of each well were then blocked using 200 μl per well of RPMI/1 percent BSA for two hours at room temperature. Both solid phase-affixed substrates provided similar results.
Jurkat cells (3-5×10^6 cells) were placed into a 15 ml Falcon™ round-bottom tube with a cap. The tube was centrifuged, and the extra medium was then removed.
Two hundred microliters of a ^51 Cr labeling solution were added to the centrifuged cells and maintained in contact with the cells for 90-120 minutes in a warm room. This procedure typically provides about 50,000-100,000 cpm/well with about 80-100 percent cell viability. Longer contact times provide a greater amount of labeling but lower cell viability.
The labeled cells are washed with (i) complete medium, (ii) 1 mM EDTA/PBS and then (iii) RPM1/1 percent BSA free of serum components. The cells are centrifuged after each washing. The cells are finally resuspended in serum-free RPMI/1 percent BSA at a concentration of 1×10^6 viable cells/ml, which provides a concentration that is diluted by one-half in the assay.
Inhibitor peptides are prepared as stock solutions at 20 mg/ml in DMSO in 1.5 ml cryogenic screwcap vials, and were stored at -70° C. Using Flow™ round-bottom or V-bottom microtiter plates, the inhibitor peptides were prepared at twice the assay concentration in RPMI/1 percent BSA at 60 μl well.
Four initial dilutions were typically used.
The ^51 Cr-labeled cells (1×10^6 cells at 60 μl/well) were then admixed with the diluted peptide solutions. The admixtures were maintained at room temperature (about 22° C.) for 30 minutes.
One hundred microliters of each inhibitor peptide/cell admixture were transferred to the substrate-coated wells. This was done in triplicate for each dilution. The resulting plates were incubated for 30 minutes at 37° C. and then washed gently three times with RPMI/1 percent BSA at 200 μl/well. Binding was observed microscopically, particularly after the second wash.
The bound cells were then lysed by the addition of a 0.5 percent solution of sodium dodecylsulfate in water at 100 μ/l well. The resulting solutions were then processed for counting and calculation of IC50 values following usual procedures. Appropriate positive and negative controls were used with each plate so that the results of separate assays could be normalized and compared.
The data of Table 1 are so normalized.

[1] = normalized IC50 relative to standard peptide of SEQ ID NO:3 (=1), about one-tenth or less of the standard is assigned zero

Structure (SMILES) | RELATIVE POTENCY (relative peptide inhibition of VLA-4 binding CS-1) | RELATIVE POTENCY (relative peptide inhibition of VLA-4 binding CS-1) [1] | also measured
CC(C)C[C@H](NC(=O)c1cc[nH]n1)C(=O)N[C@@H](CC(=O)O)C(=O)N[C@@H](Cc1ccccc1)C(=O)N1CCC[C@@H]1C(N)=O [X L D F p pyrazolecarbonyl amide] (X14-LDF[dP]-NH2; N-terminus assumed) | 35 | – | –
CC(C)C[C@H](NC(=O)c1cccc2ccccc12)C(=O)N[C@@H](CC(=O)O)C(=O)N[C@H](C(=O)N1CCC[C@@H]1C(N)=O)C(C)C [X L D V p 1-naphthoyl amide] | 1 | – | –
CC(C)C[C@H](NCc1ccccc1)C(=O)N[C@@H](CC(=O)O)C(=O)N[C@@H](Cc1ccccc1)C(=O)N1CCCCC1 [X L D F Z benzyl piperidinamide] | 6 | – | –
CC(C)C[C@H](NC(=O)Cc1ccccc1)C(=O)N[C@@H](CC(=O)O)C(=O)NC1Cc2ccccc2CN1 (stereo partly shown) | – | 3 | –
CC(=O)N[C@@H](CO)C(=O)N[C@@H](Cc1ccccc1)C(=O)N[C@@H](CC(=O)O)C(=O)N[C@@H](Cc1ccccc1)C(=O)N[C@@H](CO)C(N)=O [S F D F S acetyl amide] (Ac-SFDFS-NH2) | < 1 | – | –
CC(C)C[C@H](NC(=O)Cc1ccccc1)C(=O)N[C@@H](CC(=O)O)C(=O)N[C@@H](Cc1ccccc1)C(=O)N1CCNCC1 [X L D F Z phenylacetyl piperazinamide] | – | 506 | –
NC(=O)[C@H]1CCCN1C(=O)[C@H](Cc1ccccc1)NC(=O)[C@H](CC(=O)O)NC(=O)[C@H](CC1CCCCC1)NC(=O)c1ccccc1 (Bz-[Cha]DF[dP]-NH2) | – | 17 | –
CC(C)C[C@H](NC(=O)Cc1ccccc1)C(=O)N[C@@H](CC(=O)O)C(=O)N[C@H]1Cc2ccccc2[C@H]2CCCCN2C1=O | – | 50 | –
Cc1cccc(C(=O)N[C@@H](CC(C)C)C(=O)N[C@@H](CC(=O)O)C(=O)N[C@H](C(=O)N2CCC[C@@H]2C(N)=O)C(C)C)c1C [X L D V p 2,3-dimethylbenzoyl amide] | 9 | – | –
CC(C)C[C@H](NC(=O)Cc1ccccc1)C(=O)N[C@@H](CC(=O)O)C(=O)NCCN1CCOCC1 | – | 13 | –
CC(C)C[C@H](NC(=O)CCc1ccccc1)C(=O)N[C@@H](CC(=O)O)C(=O)N[C@H](C(=O)N1CCC[C@@H]1C(N)=O)C(C)C [X L D V p phenylpropionyl amide] | 14 | – | –
CC(C)C[C@H](NC(=O)Cc1ccccc1)C(=O)N[C@@H](CC(=O)O)C(=O)NC1Cc2ccccc2N(CC(N)=O)C1=O (stereo partly shown) | – | 45 | –
CCCCCCCCCC(=O)OC1CCN(C(=O)[C@H](Cc2ccccc2)NC(=O)[C@H](CC(=O)O)NC(=O)[C@H](CC(C)C)NC(=O)Cc2ccccc2)CC1 | – | 1 | –
CC(C)C[C@H](NC(=O)c1ccncc1)C(=O)N[C@@H](CC(=O)O)C(=O)N[C@@H](Cc1ccc(O)cc1)C(=O)N1CCCCC1 | 24 | – | –
CC(C)C[C@H](NC(=O)Cc1ccccc1)C(=O)N[C@@H](CC(=O)O)C(=O)NN(Cc1ccccc1)C(=O)C1CCCC1 | – | 1 | –
CC(C)C[C@H](NC(=O)Cc1ccc(Br)cc1)C(=O)N[C@@H](CC(=O)O)C(=O)N[C@@H](Cc1ccccc1)C(=O)N1CCC[C@@H]1C(N)=O [X L D F p p-bromophenylacetyl amide] (X19-LDF[dP]-NH2) | 3 | – | –
CC(=O)N[C@@H](CC(C)C)C(=O)N[C@@H](CC(=O)O)C(=O)N[C@H](C(N)=O)C(C)C [L D V acetyl amide, reference compound] (Ac-Leu-Asp-Val-NH2) | 1 | – | –

Structure (SMILES) | RELATIVE POTENCY (relative peptide inhibition of VLA-4 binding CS-1) | RELATIVE POTENCY (relative peptide inhibition of VLA-4 binding CS-1) [1] | also measured
CC(C)C[C@H](NC(=O)Cc1ccc(O)c(O)c1)C(=O)N[C@@H](CC(=O)O)C(=O)N[C@@H](Cc1ccccc1)C(=O)N1CCCCC1 | 81 | – | –
CC(C)C[C@H](NS(=O)(=O)c1ccccc1)C(=O)N[C@@H](CC(=O)O)C(=O)N[C@@H](Cc1ccccc1)C(=O)N1CCC[C@@H]1C(N)=O [X L D F p phenylsulfonyl amide] (Benzenesulfonyl-LDF[dP]-NH2) | 0 | – | –
CC(C)C[C@H](NC(=O)OCc1ccccc1)C(=O)N[C@@H](CC(=O)O)C(=O)N[C@@H](Cc1ccccc1)C(=O)N1CCC[C@@H]1C(N)=O [X L D F p benzyloxycarbonyl amide] (Cbz-LDF[dP]-NH2) | 34 | – | –
CCCCCCCCCCCCCCCCCC(=O)OC1CCN(C(=O)[C@H](Cc2ccccc2)NC(=O)[C@H](CC(=O)O)NC(=O)[C@H](CC(C)C)NC(=O)Cc2ccccc2)CC1 | – | 1 | –
CC[C@H](C)[C@H](N)C(=O)N[C@@H](CC1CCCCC1)C(=O)N[C@@H](CC(=O)O)C(=O)N[C@H](C(=O)N1CCC[C@@H]1C(N)=O)C(C)C (H-I[Cha]DV[dP]-NH2) | < 1 | – | –
CC(C)C[C@H](NC(=O)Cc1ccccc1)C(=O)N[C@@H](CC(=O)O)C(=O)NC1CCN(C2CCCCC2)C1=O (stereo partly shown) | – | 7 | –
CC[C@H](C)[C@H](N)C(=O)N[C@@H](CC(C)C)C(=O)N[C@@H](CC(=O)O)C(=O)N[C@H](C(=O)N1CCC[C@H]1C(=O)O)C(C)C [I L D V P free amine free acid, reference compound] (H-ILDVP-OH) | 1 | – | –
CC(C)C[C@H](NC(=O)c1ccc2ccccc2c1)C(=O)N[C@@H](CC(=O)O)C(=O)N[C@H](C(=O)N1CCC[C@@H]1C(N)=O)C(C)C [X L D V p 2-naphthoyl amide] | 1 | – | –
CC(C)C[C@H](NC(=O)Cc1ccccc1)C(=O)N[C@@H](CC(=O)O)C(=O)NC1CCCCN(CC(N)=O)C1=O (stereo partly shown) | – | 97 | –
CC(C)C[C@H](NC(=O)c1cnc2ccccc2c1)C(=O)N[C@@H](CC(=O)O)C(=O)N[C@@H](Cc1ccccc1)C(=O)N1CCC[C@@H]1C(N)=O [X L D F p 3-quinolinecarbonyl amide] (Quinoline3carbonyl-LDF[dP]-NH2) | 56 | – | –
CC(C)C[C@H](NC(=O)c1cnccn1)C(=O)N[C@@H](CC(=O)O)C(=O)N[C@@H](Cc1ccccc1)C(=O)N1CCC[C@@H]1C(N)=O [X L D F p 2-pyrazinecarbonyl amide] (Pyrazinecarbonyl-LDF[dP]-NH2) | 9 | – | –
CC(C)C[C@H](NC(=O)CC1CCCCC1)C(=O)N[C@@H](CC(=O)O)C(=O)N[C@H](C(=O)N1CCC[C@@H]1C(N)=O)C(C)C [X L D V p cyclohexaneacetyl amide] | 2 | – | –
CC(C)C[C@H](NC(=O)Cc1ccccc1)C(=O)N[C@@H](CC(=O)O)C(=O)N[C@@H]1CCCCNC1=O | – | 17 | –
CC(C)C[C@H](NC(=O)Cc1ccccc1)C(=O)N[C@@H](CC(=O)O)C(=O)N[C@@H](Cc1c[nH]c2ccccc12)C(=O)N1CCC[C@@H]1C(N)=O [X L D W p phenylacetyl amide] (PhAc-LDW[dP]-NH2) | – | 184 | –
CC(C)C[C@H](NC(=O)C=Cc1ccccc1)C(=O)N[C@@H](CC(=O)O)C(=O)N[C@H](C(=O)N1CCC[C@@H]1C(N)=O)C(C)C [X L D V p cinnamoyl amide] | 1 | – | –
CC(C)C[C@H](NC(=O)Cc1ccccc1)C(=O)N[C@@H](CC(=O)O)C(=O)N[C@@H](Cc1ccc(O)cc1)C(=O)N1CCC[C@@H]1C(N)=O [X L D Y p phenylacetyl amide, N-phenylacetyl-Leu-Asp-Tyr-D-Pro-NH2] (PhAc-LDY[dP]-NH2) | – | 640 | RELATIVE POTENCY (relative peptide inhibition of VLA-4 binding CS-1) (normalized IC50 relative to standard peptide of SEQ ID NO:3 (=1), about one-tenth or less of the standard is assigned zero, listed as X L D Y P phenylacetyl amide): 405
